Data on 5 molecules can be found in ChEMBL document CHEMBL2074384, “Reduced folate derivatives are endogenous substrates for cMOAT in rats” (Am J Physiol, 1998).

Data set [1] addresses T1, ATP-binding cassette sub-family C member 2 (Rattus norvegicus, UniProt Q63120). As to the kind of experiment: TP_TRANSPORTER: inhibition of 5-methyltetrahydrofolate uptake in bile canalicular membrane vesicles from SD rat. The data set is classed as functional, cell membranes, Sprague-Dawley, Bile canalicular membrane vesicle.
Data set [2] concerns the target T1, ATP-binding cassette sub-family C member 2. As to the kind of experiment: TP_TRANSPORTER: inhibition of DNP-SG uptake in bile canalicular membrane vesicles from SD rat. The data set is classed as functional, cell membranes, Sprague-Dawley, Bile canalicular membrane vesicle.
Substrate in data set [3]: CN1c2c(nc(N)[nH]c2=O)NC[C@@H]1CNc1ccc(C(=O)N[C@@H](CCC(=O)O)C(=O)O)cc1
As to the kind of experiment: cells, lysate or membranes named.

What is called Ki is a measure of affinity in units of concentration, obtained from inhibition or displacement. A low value points to higher affinity. By Km is commonly meant the substrate concentration at which the rate is half of its maximum.

`N[C@@H](CCC(=O)N[C@H](CSc1ccc([N+](=O)[O-])cc1[N+](=O)[O-])C(=O)NCC(=O)O)C(=O)O` yielded a Ki in data set [1] of 34.5 µM. That is a double-digit micromolar value.

Regarding `Nc1nc2c(c(=O)[nH]1)N1CN(c3ccc(C(=O)N[C@@H](CCC(=O)O)C(=O)O)cc3)CC1CN2` (stereo not given in full) [FOLITIXORIN], the affinity in data set [2] corresponds to a Ki of 269 µM.

On to `CN1c2c(nc(N)[nH]c2=O)NC[C@@H]1CNc1ccc(C(=O)N[C@@H](CCC(=O)O)C(=O)O)cc1` [LEVOMEFOLIC ACID], for which the inhibition constant Ki in data set [2] was 121 µM. This Ki is about 2.2-fold lower than that of the molecule before.

As to `Nc1nc2c(c(=O)[nH]1)NC(CNc1ccc(C(=O)N[C@@H](CCC(=O)O)C(=O)O)cc1)CN2` (stereo not given in full) [TETRAHYDROFOLATE], the inhibition constant Ki in data set [2] was found to be 358 µM.

B1: ATP-binding cassette sub-family C member 2 (Rattus norvegicus) (protein)
chain: MDKFCNSTFWDLSLLESPEADLPLCFEQTVLVWIPLGFLWLLAPWQLYSVYRSRTKRSSITKFYLAKQVFVVFLLILAAIDLSLALTEDTGQATVPPVRYTNPILYLCTWLLVLAVQHSRQWCVRKNSWFLSLFWILSVLCGVFQFQTLIRALLKDSKSNMAYSYLFFVSYGFQIVLLILTAFSGPSDSTQTPSVTASFLSSITFSWYDRTVLKGYKHPLTLEDVWDIDEGFKTRSVTSKFEAAMTKDLQKARQAFQRRLQKSQRKPEATLHGLNKKQSQSQDVLVLEEAKKKSEKTTKDYPKSWLIKSLFKTFHVVILKSFILKLIHDLLVFLNPQLLKLLIGFVKSSNSYVWFGYICAILMFAVTLIQSFCLQSYFQHCFVLGMCVRTTVMSSIYKKALTLSNLARKQYTIGETVNLMSVDSQKLMDATNYMQLVWSSVIQITLSIFFLWRELGPSILAGVGVMVLLIPVNGVLATKIRNIQVQNMKNKDKRLKIMNEILSGIKILKYFAWEPSFQEQVQGIRKKELKNLLRFGQLQSLLIFILQITPILVSVVTFSVYVLVDSANVLNAEKAFTSITLFNILRFPLSMLPMVTSSILQASVSVDRLERYLGGDDLDTSAIRRVSNFDKAVKFSEASFTWDPDLEATIQDVNLDIKPGQLVAVVGTVGSGKSSLVSAMLGEMENVHGHITIQGSTAYVPQQSWIQNGTIKDNILFGSEYNEKKYQQVLKACALLPDLEILPGGDMAEIGEKGINLSGGQKQRVSLARAAYQDADIYILDDPLSAVDAHVGKHIFNKVVGPNGLLAGKTRIFVTHGIHFLPQVDEIVVLGKGTILEKGSYRDLLDKKGVFARNWKTFMKHSGPEGEATVNNDSEAEDDDDGLIPTMEEIPEDAASLAMRRENSLRRTLSRSSRSSSRRGKSLKNSLKIKNVNVLKEKEKEVEGQKLIKKEFVETGKVKFSIYLKYLQAVGWWSILFIILFYGLNNVAFIGSNLWLSAWTSDSDNLNGTNNSSSHRDMRIGVFGALGLAQGICLLISTLWSIYACRNASKALHGQLLTNILRAPMRFFDTTPTGRIVNRFSGDISTVDDLLPQTLRSWMMCFFGIAGTLVMICMATPVFAIIIIPLSILYISVQVFYVATSRQLRRLDSVTKSPIYSHFSETVTGLPIIRAFEHQQRFLAWNEKQIDINQKCVFSWITSNRWLAIRLELVGNLVVFCSALLLVIYRKTLTGDVVGFVLSNALNITQTLNWLVRMTSEAETNIVAVERISEYINVENEAPWVTDKRPPADWPRHGEIQFNNYQVRYRPELDLVLKGITCNIKSGEKVGVVGRTGAGKSSLTNCLFRILESAGGQIIIDGIDVASIGLHDLRERLTIIPQDPILFSGSLRMNLDPFNKYSDEEVWRALELAHLRSFVSGLQLGLLSEVTEGGDNLSIGQRQLLCLGRAVLRKSKILVLDEATAAVDLETDSLIQTTIRKEFSQCTVITIAHRLHTIMDSDKIMVLDNGKIVEYGSPEELLSNRGSFYLMAKEAGIENVNHTEL
With B1, in data set [3], the Km stood at 126 µM.
